Assay results: ChEMBL document CHEMBL3046330, “Synthesis and biological activity of hydrazidehydrazones and their corresponding 3-acetyl-2,5-disubstituted-2,3-dihydro-1,3,4-oxadiazoles” (Med Chem Res, 2012)
Values after ≈ are worked out from the molar mass of the structure shown. Active and inactive are the calls of the source. The rule behind the calls is not given here.

What was measured:
HL-60 [1] = experiment: Cytotoxicity against Homo sapiens (human) HL60 cells; type: cell-based
SK-OV-3 = experiment: Cytotoxicity against Homo sapiens (human) SKOV3 cells assessed as cell viability up to 25 ug/ml after 48 hr by neutral red assay; type: functional, cell-based
Vero = experiment: Cytotoxicity against Chlorocebus aethiops (African green monkey) Vero cells assessed as cell viability up to 25 ug/ml after 48 hr by neutral red assay; type: cell-based; conditions: chlorocebus sabaeus
Candida albicans [2] = experiment: Antifungal activity against Candida albicans clinical isolate at 2000 ug/ml by agar diffusion method; type: functional; conditions: read-out: IZ
Candida parapsilosis = experiment: Antifungal activity against Candida parapsilosis NRRL Y-12696 after 24 hr by NCCLS broth microdilution method; type: functional; conditions: Lodderomyces parapsilosis, NRRL Y-12696, 24 h
Colletotrichum fragariae = experiment: Antifungal activity against Colletotrichum fragariae at 0.3 to 30 uM after 48 to 72 hr by broth microdilution method; type: functional, organism-based
Transcription factor Sp1 = Transcription factor Sp1 (Homo sapiens, UniProt P08047); experiment: Inhibition of Sp1 (unknown origin) up to 25 ug/ml by luciferase reporter gene assay
Chain of Transcription factor Sp1 (P08047 whole entry): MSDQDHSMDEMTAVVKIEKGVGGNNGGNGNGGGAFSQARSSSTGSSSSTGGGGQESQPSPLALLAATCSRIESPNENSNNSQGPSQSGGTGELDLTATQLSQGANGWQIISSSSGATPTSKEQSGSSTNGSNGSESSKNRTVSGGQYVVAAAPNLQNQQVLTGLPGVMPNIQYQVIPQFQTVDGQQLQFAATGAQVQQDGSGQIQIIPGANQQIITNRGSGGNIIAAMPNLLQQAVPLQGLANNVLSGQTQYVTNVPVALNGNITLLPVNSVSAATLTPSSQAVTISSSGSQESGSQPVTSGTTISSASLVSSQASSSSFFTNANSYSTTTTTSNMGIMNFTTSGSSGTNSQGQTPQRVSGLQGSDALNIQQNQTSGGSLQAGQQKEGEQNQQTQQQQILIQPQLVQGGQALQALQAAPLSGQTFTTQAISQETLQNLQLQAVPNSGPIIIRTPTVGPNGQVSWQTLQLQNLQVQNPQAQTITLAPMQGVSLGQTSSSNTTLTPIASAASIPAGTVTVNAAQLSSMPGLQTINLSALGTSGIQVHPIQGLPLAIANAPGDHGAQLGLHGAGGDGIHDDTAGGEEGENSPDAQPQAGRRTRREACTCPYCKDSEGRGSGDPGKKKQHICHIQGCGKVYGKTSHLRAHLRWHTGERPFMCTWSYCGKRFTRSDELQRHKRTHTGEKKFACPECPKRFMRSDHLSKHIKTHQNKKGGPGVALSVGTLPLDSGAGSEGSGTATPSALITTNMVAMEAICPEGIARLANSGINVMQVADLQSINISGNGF

[3] = target: T1, Nitric oxide synthase, inducible (Mus musculus, UniProt P29477); experiment: Inhibition of iNOS in Mus musculus (mouse) RAW264.7 cells assessed as inhibition of LPS-induced nitrite production incubated for 30 min prior to LPS challenge measured after 24 hr by Griess assay; type: cell-based
T1 sequence (P29477 whole entry): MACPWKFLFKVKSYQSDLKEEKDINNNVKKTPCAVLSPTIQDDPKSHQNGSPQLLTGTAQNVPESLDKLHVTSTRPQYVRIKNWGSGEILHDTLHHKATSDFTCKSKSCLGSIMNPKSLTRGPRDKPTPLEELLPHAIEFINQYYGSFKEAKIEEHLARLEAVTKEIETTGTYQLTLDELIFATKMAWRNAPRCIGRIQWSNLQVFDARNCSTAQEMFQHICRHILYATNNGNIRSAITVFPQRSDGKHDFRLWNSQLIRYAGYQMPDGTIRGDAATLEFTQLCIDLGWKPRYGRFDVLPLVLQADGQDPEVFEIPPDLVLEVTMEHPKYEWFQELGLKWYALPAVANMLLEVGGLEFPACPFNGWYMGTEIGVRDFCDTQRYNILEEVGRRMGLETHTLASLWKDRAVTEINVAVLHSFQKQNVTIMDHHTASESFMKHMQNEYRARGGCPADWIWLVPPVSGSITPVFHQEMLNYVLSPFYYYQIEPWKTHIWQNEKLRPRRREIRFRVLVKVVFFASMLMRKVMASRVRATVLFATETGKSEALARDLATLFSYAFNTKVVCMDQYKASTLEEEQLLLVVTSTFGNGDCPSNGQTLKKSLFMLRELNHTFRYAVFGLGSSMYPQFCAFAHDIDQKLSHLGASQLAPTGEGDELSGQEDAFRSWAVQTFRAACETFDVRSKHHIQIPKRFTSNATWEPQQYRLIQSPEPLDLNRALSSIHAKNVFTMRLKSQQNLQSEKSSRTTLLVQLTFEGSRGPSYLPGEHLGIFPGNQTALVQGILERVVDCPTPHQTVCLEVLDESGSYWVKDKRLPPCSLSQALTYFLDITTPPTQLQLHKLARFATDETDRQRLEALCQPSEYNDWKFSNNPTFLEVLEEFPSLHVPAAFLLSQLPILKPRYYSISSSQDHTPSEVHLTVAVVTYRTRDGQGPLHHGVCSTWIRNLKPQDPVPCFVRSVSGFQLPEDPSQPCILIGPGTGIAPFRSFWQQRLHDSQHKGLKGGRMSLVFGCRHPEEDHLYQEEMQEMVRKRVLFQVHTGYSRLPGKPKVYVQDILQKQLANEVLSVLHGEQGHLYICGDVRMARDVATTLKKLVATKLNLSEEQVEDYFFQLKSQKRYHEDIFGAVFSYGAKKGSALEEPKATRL

Candida albicans [4] = experiment: Antifungal activity against Candida albicans NRRL Y-12983 after 24 hr by NCCLS broth microdilution method; type: functional; conditions: NRRL Y-12983, 24 h
[5] = Cytotoxicity against Sus scrofa (pig) LLC-PK11 cells assessed as cell viability up to 25 ug/ml after 48 hr by neutral red assay; type: cell-based; conditions: llc-pk11, 48 h
Candida tropicalis [6] = experiment: Antifungal activity against Candida tropicalis NRRL Y-12968 after 24 hr by NCCLS broth microdilution method; type: functional; conditions: NRRL Y-12968, 24 h
RAW264.7 = experiment: Cytotoxicity against Mus musculus (mouse) RAW264.7 cells up to 25 ug/ml; type: cell-based
Candida tropicalis [7] = experiment: Antifungal activity against Candida tropicalis NRRL Y-12968 at 2000 ug/ml by agar diffusion method; type: functional; conditions: read-out: IZ
Nakaseomyces glabratus = experiment: Antifungal activity against Candida glabrata clinical isolate after 24 hr by NCCLS broth microdilution method; type: functional
BT-549 = experiment: Cytotoxicity against Homo sapiens (human) BT549 cells assessed as cell viability up to 25 ug/ml after 48 hr by neutral red assay; type: functional, cell-based
Cyberlindnera jadinii = experiment: Antifungal activity against Cyberlindnera jadinii NRRL Y-900 after 24 hr by NCCLS broth microdilution method; type: functional; conditions: Williopsis jadinii, NRRL Y-900, 24 h
Candida albicans [8] = experiment: Antifungal activity against Candida albicans ATCC 90028 after 24 hr by NCCLS broth microdilution method; type: functional; conditions: ATCC 90028, 24 h
HL-60 [9] = experiment: Antioxidant activity in PMA-stimulated Homo sapiens (human) HL60 cells assessed as inhibition of intracellular ROS generation up to 25 ug/ml incubated for 30 min prior to PMA stimulation measured after 30 min by DCFH-DA assay relative to vehicle-treated control; type: functional, cell-based
SK-MEL = experiment: Cytotoxicity against Homo sapiens (human) SK-MEL cells assessed as cell viability up to 25 ug/ml after 48 hr by neutral red assay; type: functional, cell-based
KB = experiment: Cytotoxicity against Homo sapiens (human) KB cells assessed as cell viability up to 25 ug/ml after 48 hr by neutral red assay; type: functional, cell-based
Pichia kudriavzevii = experiment: Antifungal activity against Pichia kudriavzevii NRRL Y-7179 after 24 hr by NCCLS broth microdilution method; type: functional; conditions: NRRL Y-7179, 24 h
Candida albicans [10] = experiment: Antifungal activity against Candida albicans clinical isolate after 24 hr by NCCLS broth microdilution method; type: functional
Botrytis cinerea = experiment: Antifungal activity against Botryotinia fuckeliana at 0.3 to 30 uM after 48 to 72 hr by broth microdilution method; type: functional, organism-based
SW1353 = experiment: Inhibition of PMA-induced NFkappaB activity in Homo sapiens (human) SW1353 cells up to 25 ug/ml incubated for 30 min followed by PMA induction for 8 hr by luciferase reporter gene assay; type: cell-based
HL-60 [11] = experiment: Cytotoxicity against Homo sapiens (human) HL60 cells up to 25 ug/ml; type: cell-based
[12] = target: T2, Nitric oxide synthase, inducible (Mus musculus) (UniProt P29477); experiment: Inhibition of iNOS in Mus musculus (mouse) RAW264.7 cells assessed as inhibition of LPS-induced nitrite production up to 25 ug/ml incubated for 30 min prior to LPS challenge measured after 24 hr by Griess assay relative to vehicle-treated control; type: cell-based
T2 sequence (whole entry): T1 sequence (P29477 whole entry)

Row | Compound | Activity (SK-OV-3) | Activity (Vero) | zone of inhibition at 2000 µg/mL (Candida albicans [2]) [mm] | MIC (Candida parapsilosis) [µg/mL] | inhibition (INH) (Transcription factor Sp1) | MIC (Candida albicans [4]) [µg/mL] | Activity [5] | MIC (Candida tropicalis [6]) [µg/mL] | Activity (RAW264.7) | zone of inhibition at 2000 µg/mL (Candida tropicalis [7]) [mm] | MIC (Nakaseomyces glabratus) [µg/mL] | Activity (BT-549) | MIC (Cyberlindnera jadinii) [µg/mL] | MIC (Candida albicans [8]) [µg/mL] | inhibition (HL-60 [9]) | Activity (SK-MEL) | Activity (KB) | MIC (Pichia kudriavzevii) [µg/mL] | MIC (Candida albicans [10]) [µg/mL] | inhibition (SW1353) | further results
1 | CC(=O)N1N=C(c2ccc(F)cc2)OC1c1ccccc1 (centres undefined) | inactive | Not Active | 9 | 1000 (≈ 3520 µM) | Not Active | 500 (≈ 1760 µM) | Not Active | 1000 (≈ 3520 µM) | Non-toxic | 9 | 1000 (≈ 3520 µM) | inactive | 1000 (≈ 3520 µM) | 1000 (≈ 3520 µM) | inactive | inactive | inactive | 1000 (≈ 3520 µM) | 500 (≈ 1760 µM) | inactive | IC50 (HL-60 [1]): 31.3 µg/mL (≈ 110 µM); Activity (Colletotrichum fragariae): inactive; IC50 [3]: > 87.9 µM; Activity (Botrytis cinerea): inactive
2 | CC(=O)N1N=C(c2ccc(F)cc2)OC1c1ccc(F)cc1 (centres undefined) | inactive | Not Active | 9 | 500 (≈ 1650 µM) | Not Active | 500 (≈ 1650 µM) | Not Active | 500 (≈ 1650 µM) | Non-toxic | 9 | 500 (≈ 1650 µM) | inactive | 500 (≈ 1650 µM) | 500 (≈ 1650 µM) | inactive | inactive | inactive | 500 (≈ 1650 µM) | 500 (≈ 1650 µM) | inactive | Activity (HL-60 [11]): Non-toxic; inhibition [12]: inactive
3 | COc1ccc(C2OC(c3ccc(F)cc3)=NN2C(C)=O)cc1 (centres undefined) | inactive | Not Active | 9 | 500 (≈ 1590 µM) | Not Active | 500 (≈ 1590 µM) | Not Active | 500 (≈ 1590 µM) | Non-toxic | 9 | 250 (≈ 795 µM) | inactive | 250 (≈ 795 µM) | 500 (≈ 1590 µM) | inactive | inactive | inactive | 500 (≈ 1590 µM) | 250 (≈ 795 µM) | inactive | Activity (HL-60 [11]): Non-toxic; inhibition [12]: inactive
4 | CC(=O)N1CCN(c2ccc(OCC3COC(Cn4ccnc4)(c4ccc(Cl)cc4Cl)O3)cc2)CC1 (centres undefined) [KETOCONAZOLE] | – | – | – | 125 (≈ 235 µM) | – | 125 (≈ 235 µM) | – | 62 (≈ 117 µM) | – | – | 31 (≈ 58.3 µM) | – | 62 (≈ 117 µM) | 62 (≈ 117 µM) | – | – | – | 62 (≈ 117 µM) | 16 (≈ 30.1 µM) | – | –
5 | COc1cccc2c1C(=O)c1c(O)c3c(c(O)c1C2=O)C[C@@](O)(C(=O)CO)C[C@@H]3O[C@H]1C[C@H](N)[C@H](O)[C@H](C)O1 [DOXORUBICIN] | – | – | – | – | – | – | – | – | – | – | – | – | – | – | – | – | – | – | – | – | IC50 (HL-60 [1]): 0.16 µg/mL (≈ 0.294 µM)
6 | CC(=O)N1N=C(c2ccc(F)cc2)OC1/C=C/c1ccc(N(C)C)cc1 (centres undefined) | inactive | Not Active | 9 | 250 (≈ 707 µM) | Not Active | 500 (≈ 1410 µM) | Not Active | 125 (≈ 354 µM) | Non-toxic | 9 | 500 (≈ 1410 µM) | inactive | 250 (≈ 707 µM) | 500 (≈ 1410 µM) | inactive | inactive | inactive | 125 (≈ 354 µM) | 500 (≈ 1410 µM) | inactive | Activity (HL-60 [11]): Non-toxic; inhibition [12]: inactive
7 | CN(C)c1ccc(/C=C/C=N/NC(=O)c2ccc(F)cc2)cc1 | inactive | Not Active | 9 | 500 (≈ 1610 µM) | Not Active | 500 (≈ 1610 µM) | Not Active | 500 (≈ 1610 µM) | Non-toxic | 9 | 500 (≈ 1610 µM) | inactive | 500 (≈ 1610 µM) | 500 (≈ 1610 µM) | inactive | inactive | inactive | 500 (≈ 1610 µM) | 500 (≈ 1610 µM) | inactive | Activity (HL-60 [11]): Non-toxic; inhibition [12]: inactive
8 | CC(=O)N1N=C(c2ccc(F)cc2)OC1c1ccc(N(C)C)cc1 (centres undefined) | inactive | Not Active | 9 | 1000 (≈ 3050 µM) | Not Active | 500 (≈ 1530 µM) | Not Active | 500 (≈ 1530 µM) | Non-toxic | 9 | 500 (≈ 1530 µM) | inactive | 500 (≈ 1530 µM) | 500 (≈ 1530 µM) | inactive | inactive | inactive | 500 (≈ 1530 µM) | 250 (≈ 764 µM) | inactive | Activity (Colletotrichum fragariae): inactive; IC50 [3]: 61.1 µM; Activity (HL-60 [11]): Non-toxic; Activity (Botrytis cinerea): inactive
9 | CC(=O)N1N=C(c2ccc(F)cc2)OC1c1ccc(Br)cc1 (centres undefined) | inactive | Not Active | 9 | 500 (≈ 1380 µM) | Not Active | 500 (≈ 1380 µM) | Not Active | 250 (≈ 688 µM) | Non-toxic | 9 | 500 (≈ 1380 µM) | inactive | 500 (≈ 1380 µM) | 1000 (≈ 2750 µM) | inactive | inactive | inactive | 500 (≈ 1380 µM) | 250 (≈ 688 µM) | inactive | Activity (Colletotrichum fragariae): inactive; IC50 [3]: > 68.8 µM; Activity (HL-60 [11]): Non-toxic; Activity (Botrytis cinerea): inactive
